Measured values taken from patent publication US20100105652A1, “PURINES AS CYSTEINE PROTEASE INHIBITORS” (Glaxo Group Limited, priority 2007, published 2010).
Where a name gives a salt, the structure may show the parent alone.

How the values were obtained:
[1] = system: Plasmodium falciparum parasite; experiment: whole cell activity against the Plasmodium falciparum parasite; format: cell-based
From the text: Equation 7 describes the apparent KI for competitive compounds and was substituted into equations 5 and 6 to generate the relevant binding constants from the fitting routine. In addition, the initial and final velocities were fit to equation 3 to further define the binding mechanism and potency. A complete discussion of this kinetic treatment has been fully described (Morrison et al., Adv. Enzymol. Relat. Areas Mol. Biol., 1988, 61, 201). 2) Determination of Whole Cell Activity Against the Plasmodium falciparum Parasite Compounds can be evaluated for whole cell activity against the Plasmodium falciparum parasite according to the procedure described in Sijwali S, and Rosenthal P. J., (2004) Proceedings of the National Academy of Sciences of the United States of America (PNAS) 101(13), 4384-4389 (see in particular “Measurement of Parasite Growth rates and Inhibitor Sensitivity” on page 4385); IC50 values can be calculated as described in Singh A. and Rosenthal P. J., (2001) Antimicrobial Agents and Chemotherapy 45(3), 949-951 (see in particular page 950, first column); synchronised parasites can be prepared as described in Divo A. A. et al., (1985) Protozool. 32, 59-64.

Falcipain-3 = target: T1, Falcipain-3 (Plasmodium falciparum, UniProt Q8IIL0); experiment: falcipain-3 enzymatic assay (fluorogenic substrate H-D-VLR-AFC, endpoint); format: biochemical; conditions: parasitic recombinant enzyme, pH 5.5, quenched after 60 minutes
T1 sequence (Q8IIL0 243-492): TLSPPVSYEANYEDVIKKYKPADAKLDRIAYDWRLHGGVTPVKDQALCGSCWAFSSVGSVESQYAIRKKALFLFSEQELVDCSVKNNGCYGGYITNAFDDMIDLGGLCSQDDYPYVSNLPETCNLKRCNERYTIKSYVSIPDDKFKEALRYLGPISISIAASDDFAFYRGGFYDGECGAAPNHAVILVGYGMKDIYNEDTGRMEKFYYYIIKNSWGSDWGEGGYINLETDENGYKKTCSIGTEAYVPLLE
Experimental: (§1) 1) Determination of Falcipain-2, Falcipain-3, Vivapain-2, and Cathepsin S Proteolytic Catalytic Activity
(§2) Assays for Falcipain-2, Falcipain-3, and Vivapain-2 are carried out with parasitic recombinant enzymes. Cathepsins S is carried out with human recombinant enzymes. Standard assay conditions for the determination of kinetic constants used a fluorogenic peptide substrate, typically H-D-VLR-AFC (Falcipain-2, Falcipain-3, Vivapain-2) or KQKLR-AMC (Cathepsin S) and are determined in 100 mM sodium acetate, pH 5.5, containing 10 mM DTT and 0.5 mM CHAPS (Falcipain-2, Falcipain-3, Vivapain-2), or 50 mM MES, pH 6.5, containing 0.5 mM CHAPS, 10 mM L-CYS, 5 mM EDTA (Cathepsin S). Stock substrate solutions are prepared at 20 mM in DMSO. The activity assays contained 30 uM substrate (Falcipain-2, Falcipain-3, Vivapain-2), and 30 uM substrate (Cathepsin S). All assays contained 1% DMSO. […] All assays are conducted at ambient temperature as end point assays being quenched after 60 minutes with the exception of Cathepsin S at 90 minutes, with 16.6 uM E-64 in 1% DMSO. Product formation (AFC or AMC) is determined from fluorescence (excitation at 405 nm; emission at 530 nm, AFC, or excitation at 360 nm; emission at 460 nm, AMC) monitored with a LJL Aquest (Molecular Devices) fluorescent plate reader. In the case of kinetic reads (used in mechanism of action studies), the reaction is not quenched but is read in the plate reader every 3 minutes for approximately 90 minutes. In addition, the mechanism of action studies for Falcipain-2 utilize Z-LR-AMC as the substrate. Product formation is determined from the fluorescence of AMC, measured with a LJL Acquest (Molecular Devices) fluorescent plate reader (excitation at 360 nm; emission at 460 nm).
(§3) Potential inhibitors are evaluated using the quenched read (endpoint) method. Assays are carried out in the presence of variable concentrations of test compound. Reactions are initiated by addition of enzyme and substrate to wells containing inhibitor stamped in 100% DMSO. For endpoint assays, the reaction is quenched with the addition of E64. Dose response data is fit to an IC50 curve with preset fitting tools according to equation 1:
(§4) y=a+(b−a)/(1+(10^X/10^C)^d) (1)
(§5) where y is the response at a particular inhibitor concentration x, a is the minimum response value, b is the maximum response value, c is the IC50, and d is the slope of the IC50 curve. Assuming the compound is a competitive inhibitor, the apparent KI can be calculated from IC50, as shown in equation 2: […]

Falcipain-2 = target: T2, Falcipain-2 (Plasmodium falciparum, UniProt Q8I6U4); experiment: falcipain-2 enzymatic assay (fluorogenic substrate H-D-VLR-AFC, endpoint); format: biochemical; conditions: parasitic recombinant enzyme, pH 5.5, quenched after 60 minutes
T2 sequence (Q8I6U4 244-484): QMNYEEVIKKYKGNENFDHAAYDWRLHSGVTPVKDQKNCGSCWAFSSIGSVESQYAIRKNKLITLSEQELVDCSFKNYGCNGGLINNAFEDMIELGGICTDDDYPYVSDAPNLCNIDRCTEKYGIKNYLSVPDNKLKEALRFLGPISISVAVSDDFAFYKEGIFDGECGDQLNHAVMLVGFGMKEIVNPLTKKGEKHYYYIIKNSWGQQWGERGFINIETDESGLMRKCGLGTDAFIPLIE
Experimental: as §1, §2, §3, §4, §5

Row | Compound | IC50 [1] [nM] | IC50 (Falcipain-3) [nM] | IC50 (Falcipain-2) [nM]
1 | CN(C)CCCN(C(=O)OC(C)(C)C)N(CC1CCCC1)c1nc(C#N)nc2c1ncn2CCCN(C)C [Example 16, 1,1-dimethylethyl 2-{2-cyano-9-[3-(dimethylamino)propyl]-9H-purin-6-yl}-2-(cyclopentylmethyl)-1-[3-(dimethylamino)propyl]hydrazinecarboxylate trifluoroacetate] | 2.5 to 15 | 150 to 250 | 2.5 to 15
2 | CN1CCC(N2CCN(Cc3ccc(C(=O)NN(CC4CCCC4)c4nc(C#N)nc5c4ncn5C)cc3)CC2)CC1 [Example 18, N′-(2-cyano-9-methyl-9H-purin-6-yl)-N′-(cyclopentylmethyl)-4-({[4-(1-methyl-4-piperidinyl)-1-piperazinyl]methyl}benzohydrazide trifluoroacetate] | 15 to 150 | 15 to 150 | 2.5 to 15
3 | CN1CCN(Cc2ccc(C(=O)NN(c3nc(C#N)nc4c3ncn4C)C3CCCC3)cc2)CC1 [Example 47, N′-(2-cyano-9-methyl-9H-purin-6-yl)-N′-cyclopentyl-4-[(4-methyl-1-piperazinyl)methyl]benzohydrazide trifluoroacetate] | 150 to 250 | 250 to 400 | 2.5 to 15
4 | CN(C)CCCn1cnc2c(N(NC(=O)c3cccc(N4CCN(C)CC4)c3)C3CCCC3)nc(C#N)nc21 [Example 37, N′-{2-cyano-9-[3-(dimethylamino)propyl]-9H-purin-6-yl}-N′-cyclo pentyl-3-4-methyl-1-piperazinyl)benzohydrazide trifluoroacetate] | 2.5 to 15 | 150 to 250 | 1 to 2.5
5 | CN1CCC(CN2CCN(Cc3ccc(C(=O)NN(c4nc(C#N)nc5c4ncn5C)C4CCCCC4)cc3)CC2)CC1 [Example 9, N′-(2-cyano-9-methyl-9H-purin-6-yl)-N′-cyclohexyl-4-({4-[(1-methyl-4-piperidinyl)methyl]-1-piperazinyl}methyl)-benzohydrazide trifluoroacetate] | 2.5 to 15 | 15 to 150 | 2.5 to 15
6 | CN1CCN(Cc2cccc(C(=O)NN(c3nc(C#N)nc4c3ncn4C)C3CCCC3)n2)CC1 [Example 26, N′-(2-cyano-9-methyl-9H-purin-6-yl)-N′-cyclopentyl-6-[(4-methyl-1-piperazinyl)methyl]-2-pyridinecarbohydrazide trifluoroacetate] | 250 to 400 | 150 to 250 | 2.5 to 15
7 | CN1CCN(C2CCN(Cc3ccc(C(=O)NN(c4nc(C#N)nc5c4ncn5C)C4CCCC4)cc3)CC2)CC1 [Example 4, N′-(2-cyano-9-methyl-9H-purin-6-yl)-N′-cyclopentyl-4-({[4-(4-methyl-1-piperazinyl)-1-piperidinyl]methyl}benzohydrazide trifluoroacetate] | 2.5 to 15 | 150 to 250 | 2.5 to 15
8 | CN1CCN(c2cccc(C(=O)NN(c3nc(C#N)nc4c3ncn4C)C3CCCC3)c2)CC1 [Example 33, N′-(2-cyano-9-methyl-9H-purin-6-yl)-N′-cyclopentyl-3-(4-methyl-1-piperazinyl)benzohydrazide trifluoroacetate] | 15 to 150 | 15 to 150 | 1 to 2.5
9 | CN(C)CCCn1cnc2c(N(NC(=O)c3ccc(CN4CCN(C)CC4)cc3)C3CCCCC3)nc(C#N)nc21 [Example 31, N′-{2-cyano-9-[3-(dimethylamino)propyl]-9H-purin-6-yl}-N′-cyclo hexyl-4-[(4-methyl-1-piperazinyl)methyl]benzohydrazide trifluoroacetate] | 15 to 150 | 15 to 150 | 2.5 to 15
10 | CN(C)CCCn1cnc2c(N(NC(=O)OC(C)(C)C)C3CCCC3)nc(C#N)nc21 [Example 15, 1,1-dimethylethyl 2-{2-cyano-9-[3-(dimethylamino)propyl]-9H-purin-6-yl}-2-cyclopentylhydrazinecarboxylate trifluoroacetate] | 15 to 150 | 15 to 150 | 2.5 to 15
11 | CN1CCN(C(=O)C2CCN(Cc3ccc(C(=O)NN(c4nc(C#N)nc5c4ncn5C)C4CCCC4)cc3)CC2)CC1 [Example 6, N′-(2-cyano-9-methyl-9H-purin-6-yl)-N′-cyclopentyl-4-({4-[(4-methyl-1-piperazinyl)carbonyl]-1-piperidinyl}methyl)benzohydrazide trifluoroacetate] | 15 to 150 | 150 to 250 | 2.5 to 15
12 | CN(C)CCCn1cnc2c(N(NC(=O)c3cccc(-c4ccc(CN5CCN(C)CC5)cc4)n3)C3CCCCC3)nc(C#N)nc21 [Example 46, N′-{2-cyano-9-[3-(dimethylamino)propyl]-9H-purin-6-yl}-N′-cyclo hexyl-6-{4-[(4-methyl-1-piperazinyl)methyl]phenyl}-2-pyridinecarbohydrazide trifluoroacetate] | 15 to 150 | 15 to 150 | 2.5 to 15
13 | Cn1cnc2c(N(NC(=O)c3ccc(CN4CC(N5CCCC5)C4)cc3)C3CCCCC3)nc(C#N)nc21 [Example 11, N′-(2-cyano-9-methyl-9H-purin-6-yl)-N′-cyclohexyl-4-({[3-(1-pyrrolidinyl)-1-azetidinyl]methyl}benzohydrazide trifluoroacetate] | 15 to 150 | 15 to 150 | 2.5 to 15
14 | CN1CCC(CN2CCN(Cc3ccc(C(=O)NN(CC4CCCC4)c4nc(C#N)nc5c4ncn5C)cc3)CC2)CC1 [Example 2, N′-(2-cyano-9-methyl-9H-purin-6-yl)-N′-(cyclopentylmethyl)-4-({4-[(1-methyl-4-piperidinyl)methyl]-1-piperazinyl}methyl)benzohydrazide trifluoroacetate] | 15 to 150 | 15 to 150 | 2.5 to 15
